Results published in PubChem BioAssay (NCI).
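Results reflect a 48-hour exposure of cells in 96-well plates to compound at five concentrations. GI50 marks 50% less growth. TGI denotes the concentration required for complete inhibition of growth.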

Legend:
Test in all cases: DTP human tumour cell line panel, 48 h
SF-295 CNS = tested on: SF-295 CNS
NCI-H23 lung = tested on: NCI-H23 lung
COLO 205 colon = tested on: COLO 205 colon
HT29 colon = tested on: HT29 colon
A498 renal = tested on: A498 renal
CCRF-CEM leukemia = tested on: CCRF-CEM leukemia
A549 NSCLC = tested on: A549 NSCLC
OVCAR-5 ovarian = tested on: OVCAR-5 ovarian
HL-60(TB) leukemia = tested on: HL-60(TB) leukemia
SK-MEL-5 melanoma = tested on: SK-MEL-5 melanoma

Row | Structure (SMILES) | GI50 (SF-295 CNS) | TGI (SF-295 CNS) | GI50 (NCI-H23 lung) | TGI (NCI-H23 lung) | GI50 (COLO 205 colon) | TGI (COLO 205 colon) | GI50 (HT29 colon) | TGI (HT29 colon) | GI50 (A498 renal) | TGI (A498 renal) | TGI (CCRF-CEM leukemia) | GI50 (A549 NSCLC) | TGI (A549 NSCLC) | GI50 (OVCAR-5 ovarian) | TGI (OVCAR-5 ovarian) | GI50 (HL-60(TB) leukemia) | TGI (HL-60(TB) leukemia) | GI50 (SK-MEL-5 melanoma) | TGI (SK-MEL-5 melanoma) | GI50 (CCRF-CEM leukemia)
1 | COc1ccc(C2C(C#N)=C(N)OC3=C2CCCc2ccc(F)cc23)cc1OC (centres undefined) | 33.2 µM | > 57.3 µM | 22.8 µM | > 65.9 µM | 38.5 µM | > 95.8 µM | 29.6 µM | > 72.4 µM | 4.22 µM | 21.9 µM | 0.0686 µM | 25.8 µM | > 69.6 µM | 24.7 µM | 65.2 µM | 32 µM | > 100 µM | 14.7 µM | 27.9 µM | –
2 | COc1cc2c3c(n(CCCN4CCC(N)CC4)c(=O)c2cc1OC)-c1cc2c(cc1C3=O)OCO2 | 0.479 µM | 1.36 µM | 0.475 µM | 1.6 µM | 2.86 µM | 7.38 µM | 0.621 µM | 9.81 µM | 3.03 µM | 10.8 µM | 0.681 µM | 0.278 µM | 0.927 µM | 1.45 µM | 5.15 µM | 4.04 µM | 7.87 µM | 1.84 µM | 8.47 µM | 0.129 µM
3 | C=C(COC(C)=O)CC(/C=C(\C)CCC=C(C)C)OC(C)=O (centres undefined) | – | > 100 µM | – | > 100 µM | – | > 100 µM | – | > 100 µM | – | > 100 µM | > 100 µM | – | > 100 µM | – | > 100 µM | – | > 100 µM | – | > 100 µM | –
4 | CS(=O)(=O)Nc1ccc(-c2ccc3c(NC(=O)C4CC4)n[nH]c3c2)cc1 | > 25 µM | > 25 µM | > 25 µM | > 25 µM | > 25 µM | > 25 µM | > 23.6 µM | > 25 µM | > 25 µM | > 25 µM | > 25 µM | > 25 µM | > 25 µM | > 25 µM | > 25 µM | > 16.7 µM | > 25 µM | > 11.9 µM | > 25 µM | 24.2 µM
5 | CCCCCC(=O)Oc1ccc(/C(=C(\C)c2ccc(OC)cc2)c2ccc(OCCN3CCCCC3)cc2)cc1 | 2.28 µM | 6.32 µM | 10.1 µM | 23.8 µM | 2.02 µM | 4.55 µM | 3.36 µM | 13.4 µM | 13.5 µM | 26.5 µM | 31.8 µM | 10.1 µM | 22.4 µM | 12.7 µM | 27 µM | 3.98 µM | 17.8 µM | 1.8 µM | 3.57 µM | 4.2 µM
